Where two headings read alike, the source gives them in different places.
What was measured:
[1] = molecular target: human acetylcholinesterase (Homo sapiens, UniProt P22303); assay: biochemical; assay type: biochemical; settings: for inhibition at 500 µg/mL: read-out: Inhibition of AChE activity %; for activity at 500 µg/mL: read-out: AChE activity %
Procedure: Inhibitor solution: 10 mg of the corresponding samples were respectively dissolved in 1 ml methanol.
Chromogen solution: 0.1 M Sodium phosphate buffer (pH=8, NaOH) was mixed with solution A at a ratio of 30:1.
Solution A: 39.6 mg 5,5′-dithio-bis[2-nitrobenzoic acid] and 15.0 mg NaHCO3 were weighed into a 10 ml flask and filled to the mark with 0.1 M Sodium-phosphate buffer (pH=7, NaOH).
Enzyme solution: A solution of human acetylcholinesterase containing 70 IU enzyme activity/ml H2O was prepared.
Substrate solution: 115.7 mg acetylthiocholine-iodide was weighed into a 10 ml flask and filled to the mark with H2O.
10 μl inhibitor solution was mixed with 185 μl chromogen solution and 10 μl enzyme solution. The solution was incubated for 10 minutes at room temperature with shaking. […] substrate solution was added and the increase in absorption at 412 nm was recorded until no more increase was observed (3-5 minutes).

[2] = Content of test solution before and after incubation (stability under CaCo-2 test conditions); assay type: in vitro ADME; settings: for Area-% Fingerprint of test solution after 120 minutes / Area-% Fingerprint of test solution prior to incubation: Gardenia extract test solution
Procedure: (§1) CaCo-2 cells were incubated with 10 mg Gardenia extract and 10 mg crocetin/100 mL medium. The test compounds were dissolved in methanol and then diluted with incubation medium. Incubations were performed at 37° C. for 30, 60 and 120 minutes.
The content of crocetin related esters and crocetin in the sample used for incubation testing was determined.
Table 7 provides the content of test solution prior to incubation:
Table 8 provides the corresponding data for the test solution obtained after 120 minutes.
(§2) An appropriate amount of standard was transferred into a 10 mL flask and dissolved in 3 mL methanol and filled to the mark with water. Dilutions were prepared in mobile phase.
(§3) Quantification was performed by external standardization after linear regression analysis.

[3] = tested on: CaCo-2 cells; assay: Cellular uptake of crocin and crocetin in CaCo-2 cells (cellular content); assay type: in vitro ADME; settings: for Crocetin (HPLC) concentration in the cells: 10 mg crocetin/100 mL medium; for HPLC peaks in the cells: 10 mg Gardenia extract/100 mL medium
Procedure: as §1
Cells were grown in 75 cm^2 culture-flasks (T75) and sub-cultured after one week (every other day washed with PBS buffer, removed with trypsin and transferred to a new culture flask).
The cells were washed with PBS buffer, incubated with 4 ml medium containing the suspended samples for 30, 60 or 120 minutes.
After the corresponding incubation time, the cells were washed with PBS buffer/MeOH=70/30 and removed using 1 ml of MeOH. Cells were sonicated 3 times for 30 seconds, centrifuged for 10 min and the pellets were discarded. The supernatant was used as sample for HPLC and UV/VIS-analysis.
as §2, §3

[4] = tested on: CaCo-2 cells; assay: CaCo-2 uptake trial extended with gardenia hydrolysate (%-uptake by HPLC/UV peak areas); assay type: in vitro ADME; settings: sample 20 mg/100 ml; proportion on overall absorption
Procedure: The tests were performed in replicate and the results are expressed as %-uptake based on peak areas measured by HPLC/UV.

[5] = stated as known property; cited from earlier work
[6] = Solubility in water / aqueous alkaline solution; assay type: physicochemical; settings: found by the applicant
[7] = sample 0.50 mg/ml, Neg Control = 0.0
[8] = sample 0.50 mg/ml, Neg Control = 100.0
[9] = after 120 minutes incubation at 37° C.

human acetylcholinesterase, sequence (P22303 32-614): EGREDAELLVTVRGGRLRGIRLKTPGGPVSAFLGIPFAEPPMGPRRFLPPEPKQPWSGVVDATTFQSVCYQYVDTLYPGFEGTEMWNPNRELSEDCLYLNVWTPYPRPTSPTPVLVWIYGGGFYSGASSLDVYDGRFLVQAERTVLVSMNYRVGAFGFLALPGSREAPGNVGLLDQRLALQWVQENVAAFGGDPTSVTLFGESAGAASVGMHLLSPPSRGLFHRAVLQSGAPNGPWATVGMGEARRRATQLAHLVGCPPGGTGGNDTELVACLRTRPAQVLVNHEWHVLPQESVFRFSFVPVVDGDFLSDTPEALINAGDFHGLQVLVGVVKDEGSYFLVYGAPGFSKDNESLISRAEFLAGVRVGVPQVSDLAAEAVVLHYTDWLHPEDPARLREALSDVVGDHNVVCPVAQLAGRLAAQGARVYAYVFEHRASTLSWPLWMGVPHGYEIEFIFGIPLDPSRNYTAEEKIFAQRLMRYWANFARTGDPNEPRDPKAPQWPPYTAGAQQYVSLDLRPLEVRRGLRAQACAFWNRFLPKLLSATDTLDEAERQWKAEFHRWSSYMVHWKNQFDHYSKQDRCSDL

| Compound | Area-% Fingerprint of test solution after 120 minutes [2, 9] [Area-%] | Area-% Fingerprint of test solution prior to incubation ([2]; prior to incubation) [Area-%] | HPLC peaks in the cells ([3]; time 0 min) | HPLC peaks in the cells ([3]; time 30 min) | HPLC peaks in the cells ([3]; time 60 min) | HPLC peaks in the cells ([3]; time 120 min) | other results |
| --- | --- | --- | --- | --- | --- | --- | --- |
| CC(/C=C/C=C(\C)C(=O)O)=C\C=C\C=C(C)\C=C\C=C(/C)C(=O)O [Crocetin, 8,8′-Diapo-ψ,ψ-carotenedioic acid, reference compound] |  |  |  |  |  |  | inhibition at 500 µg/mL [1, 7]: 7.5%; activity at 500 µg/mL [1, 8]: 92.5%; content of test solution after 120 minutes [2, 9]: 9.77 mg/100 ml; content of test solution prior to incubation ([2]; prior to incubation, incubation medium): 9.82 mg/100 ml; Crocetin (HPLC) concentration in the cells ([3]; time 0 min): BLD (BLD = <0.01 mg/100 ml); Crocetin (HPLC) concentration in the cells ([3]; time 30 min): BLD (BLD = <0.01 mg/100 ml); Crocetin (HPLC) concentration in the cells ([3]; time 60 min): BLD (BLD = <0.01 mg/100 ml); Crocetin (HPLC) concentration in the cells ([3]; time 120 min): BLD (BLD = <0.01 mg/100 ml); % uptake of crocetin [4]: 0.53%; solubility in aqueous alkaline solution [5]: soluble; solubility in water [5]: insoluble in water |
| neapolitanosyl-glucosyl-(trans)crocetin [NGTC] | 17.9 | 18.1 | not detected | not detected | not detected | not detected |  |
| CC(/C=C/C=C(\C)C(=O)O[C@@H]1O[C@H](CO[C@@H]2O[C@H](CO)[C@@H](O)[C@H](O)[C@H]2O)[C@@H](O)[C@H](O)[C@H]1O)=C\C=C\C=C(C)\C=C\C=C(/C)C(=O)O[C@@H]1O[C@H](CO[C@@H]2O[C@H](CO)[C@@H](O)[C@H](O)[C@H]2O)[C@@H](O)[C@H](O)[C@H]1O [Crocin, di-gentiobiose ester of crocetin] |  |  |  |  |  |  | activity at 500 µg/mL [1]: 52.7%; inhibition at 500 µg/mL [1]: 47.3%; solubility in water [5]: very good water-solubility |
| CCOC(=O)CCC(=O)O [Monoester] |  |  |  |  |  |  | Inhibition of AChE activity % [1, 7]: 89.2%; AChE activity % [1, 8]: 10.8%; solubility in water [6]: good solubility in water |
| CC(=C/C=C/C=C(C)/C=C/C=C(/C)C(=O)O[C@@H]1O[C@H](CO[C@@H]2O[C@H](CO)[C@@H](O)[C@H](O)[C@H]2O)[C@@H](O)[C@H](O)[C@H]1O)/C=C/C=C(\C)C(=O)O[C@@H]1O[C@H](CO[C@@H]2O[C@H](CO)[C@@H](O)[C@H](O)[C@H]2O)[C@@H](O)[C@H](O)[C@H]1O (relative stereo) [DGCC, digentobiosyl-(cis)crocetin] | 15.2 | 16.6 | not detected | not detected | not detected | not detected |  |
| CC(/C=C/C=C(\C)C(=O)O[C@@H]1O[C@H](CO[C@@H]2O[C@H](CO)[C@@H](O)[C@H](O)[C@H]2O)[C@@H](O)[C@H](O)[C@H]1O)=C\C=C\C=C(C)\C=C\C=C(/C)C(=O)O[C@@H]1O[C@H](CO[C@@H]2O[C@H](CO)[C@@H](O)[C@H](O)[C@H]2O)[C@@H](O)[C@H](O)[C@H]1O (relative stereo) [DGTC, digentobiosyl-(trans)crocetin] | 43.4 | 45.3 | not detected | not detected | not detected | not detected |  |
| CC(/C=C/C=C(\C)C(=O)O)=C\C=C\C=C(C)\C=C\C=C(/C)C(=O)O[C@@H]1O[C@H](CO[C@@H]2O[C@H](CO)[C@@H](O)[C@H](O)[C@H]2O)[C@@H](O)[C@H](O)[C@H]1O (relative stereo) [GTC, gentobisyl-(trans)crocetin] | 10.3 | 9.7 | not detected | not detected | not detected | not detected |  |
